Measurements published in patent US9359409B2, “Antimicrobial peptides, compositions comprising the same and uses thereof” (priority 2012, dated 2016).
Read-outs that look alike come from different tables or passages of the source. Ends that are not written are not given here.

Tests used:
Escherichia coli = system: Escherichia coli
Method: (§1) The 5 designed and synthesized peptides of the invention, plus omiganan (peptide of the state of the art) were evaluated for their antimicrobial capacity in microdilution assays for determining the minimum inhibitory concentration (MIC). A first panel of 8 representative strains was analyzed in these assays, encompassing Gram positive and Gram negative bacteria. […] The lowest MIC values indicate a higher antimicrobial potency.
(§2) Subsequently, an analysis of a panel of clinical isolates including strains with different resistance mechanisms against conventional antibiotics was carried out, all of which are of clinical relevance. […] In Table 3 the results for a panel of Gram negative bacteria are shown, and in Table 4 for a panel of […] bacteria. In these tables the detected gene/s responsible for the resistance against antibiotics for each strain, are included.
(§3) Antimicrobial activity was analyzed by means of the determination of the MIC (minimum inhibitory concentration) by the microdilution technique. The technique was carried out in the standard fashion according to (CLSI M07-A9 Vol. 32 No 2. January 2012). The peptide concentration range used was from 0.5 μg/mL to 512 μg/mL in two-fold serial dilutions. The used medium was MH Difco broth supplemented with cations, at a final concentration of Ca^++20-25 mg/L and Mg^++10-12.5 mg/L. The working inoculum used corresponds to a 1/100 dilution of a bacterial suspension equivalent to 0.5 in the Mc Farland scale.

Pseudomonas aeruginosa = experiment: MIC by broth microdilution; assay type: cell-based
Method: as §1, §2, §3

Staphylococcus aureus = experiment: MIC by broth microdilution; assay type: cell-based
Method: as §1, §2, §3

A. baumanii = system: A. baumanii
Method: as §2, §3

E. gallinarum = system: E. gallinarum
Method: as §2, §3

E. raffinosus = system: E. raffinosus
Method: as §2, §3

S. haemolyticus = system: S. haemolyticus
Method: as §2, §3

E. coli = assay type: cell-based
Method: (§4) In vitro sensitivity assay of aerobically growing bacteria, using the disc diffusion method was performed according to the standards in the M2 document of the CLSI (Clinical and Laboratory Standards Institute: Performance Standards for Antimicrobial Disk Susceptibility Tests.) using the non-amidated peptides
(§5) In brief, intermediate solutions (10×) of the antimicrobial non-amidated peptides were prepared by serial dilutions 1:2, 1:4 and 1:8 by two-fold dilutions. Then, one part of the solution of the antimicrobial peptide 10× was added to nine parts of melted bacteriological agar. The antibiotic solution was added for each dilution, in the melted agar and cooled to 45-50° C. in a water bath. Then, the agar-antibiotic mixture was placed in a Petri dish until a 3-4 mm depth was reached. The inoculum is prepared with a turbidity of 0.5 in the McFarland scale (approximately 1-2 10^8 CFU/ml). The final inoculum required for the agar dilution test is 10^4 colony forming units (CFU) per “spot” having 5-8 mm in diameter. The inoculated plates must be incubated upside down at 35° C. for a period of 16-20 hs. MIC was recorded as the value of the lower dilution completely inhibiting bacterial development, without considering the development of a single colony or a slight film caused by the inoculum deposit. The final point in these cases will correspond to the concentration at which there is more than 80% reduction in growth as compared with the control.

K. pneumoniae = assay type: cell-based
Method: as §4, §5

P. aeruginosa = assay type: cell-based
Method: as §4, §5

S. aureus = assay type: cell-based
Method: as §4, §5

S. cohnii = assay type: cell-based
Method: as §4, §5

S. warnerii = assay type: cell-based
Method: as §4, §5

human erythrocytes = experiment: Erythrocyte hemolysis assay (cytotoxicity); assay type: cell-based
Method: Subsequently, the capacity of the peptides of the invention for lysing human erythrocytes was evaluated, as a measure of their cytotoxicity (Table 2). The assays were carried out according to the Examples and are expressed as a percentage of total lysis obtained with either water or the surfactant Tween 20. In this assays, the lower hemolysis percentage, the lower expected cytotoxic activity.
Evaluation of cytotoxic activity was performed by means of an erythrocyte hemolysis assay (according to Pure Appl. Chem., Vol. 79, No. 4, pp. 717-728, 2007). In brief, from a volume of heparinized human whole blood, 3 times that volume of PBS is added and centrifuged 10 minutes at 1500 rpm, repeating the washing two more times. 10% blood solutions in PBS were prepared with that pellet. Subsequently, each group was added the corresponding peptide at the indicated concentration and incubated at 37° C. for 30 minutes. […]

S. saprophyticus = system: S. saprophyticus
Method: as §2, §3

[1] = E. coli ABC11, resistance gene ctx-m-2
[2] = E. coli Cos15, resistance gene per + tem
[3] = E. coli LCA1, resistance gene ctx-m-2 + tem-1
[4] = E. coli M5306, resistance gene ctx-m-2 + tem-1 + per-2
[5] = E. coli M7859, resistance gene cit
[6] = E. coli NEU23, resistance gene oxa-GIII + tem
[7] = P. aeruginosa M7525, resistance gene spm
[8] = P. aeruginosa M7712, resistance gene spm
[9] = P. aeruginosa M7723, resistance gene kpc
[10] = P. aeruginosa M7728, resistance gene imp
[11] = P. aeruginosa M7907, resistance gene per
[12] = S. aureus 28, resistance gene ermA
[13] = S. aureus 33, resistance gene msrA
[14] = S. aureus 204, resistance gene ermA
[15] = S. aureus 239, resistance gene ermC
[16] = S. aureus M2832, resistance gene mecA
[17] = S. aureus M4046, resistance gene mecA
[18] = S. aureus M6784, resistance gene mecA
[19] = A. baumanii FAV-1, resistance gene per + oxa-51 + oxa-58
[20] = A. baumanii M5179, resistance gene oxa-51
[21] = A. baumanii M5277, resistance gene per
[22] = A. baumanii M5282, resistance gene oxa-51
[23] = A. baumanii M5949, resistance gene oxa-23 + oxa-GVI
[24] = A. baumanii M7489, resistance gene oxa-51 + tem
[25] = A. baumanii M7978, resistance gene imp
[26] = A. baumanii M9665, resistance gene oxa-51
[27] = A. baumanii M13523, resistance gene oxa-51
[28] = E. gallinarum M2685, resistance gene vanC1 + vanA
[29] = E. gallinarum M2723, resistance gene vanC1 + vanA

GLLKKWLKKWKEFKRIVGY-NH2 [peptide 2, GLLKKWLKKWKEFKRIVGY]
MIC (Escherichia coli; [1]): 32 µg/mL
MIC (Escherichia coli; [2]): 64 µg/mL
MIC (Escherichia coli; [3]): 64 µg/mL
MIC (Escherichia coli; [4]): 4 µg/mL
MIC (Escherichia coli; [5]): 32 µg/mL
MIC (Escherichia coli; E. coli M9209, resistance gene kpc): 64 µg/mL
MIC (Escherichia coli; [6]): 32 µg/mL
MIC (Pseudomonas aeruginosa; [7]): 64 µg/mL
MIC (Pseudomonas aeruginosa; [8]): 64 µg/mL
MIC (Pseudomonas aeruginosa; [9]): 64 µg/mL
MIC (Pseudomonas aeruginosa; [10]): 64 µg/mL
MIC (Pseudomonas aeruginosa; [11]): 64 µg/mL
MIC (Staphylococcus aureus; [12]): 64 µg/mL
MIC (Staphylococcus aureus; [13]): 128 µg/mL
MIC (Staphylococcus aureus; [14]): 64 µg/mL
MIC (Staphylococcus aureus; [15]): 64 µg/mL
MIC (Staphylococcus aureus; S. aureus ATCC29213, WT): 64 µg/mL
MIC (Staphylococcus aureus; [16]): 128 µg/mL
MIC (Staphylococcus aureus; [17]): 128 µg/mL
MIC (Staphylococcus aureus; [18]): 32 µg/mL
MIC (A. baumanii; [19]): 16 µg/mL
MIC (A. baumanii; [20]): 32 µg/mL
MIC (A. baumanii; [21]): 32 µg/mL
MIC (A. baumanii; [22]): 8 µg/mL
MIC (A. baumanii; [23]): 32 µg/mL
MIC (A. baumanii; [24]): 8 µg/mL
MIC (A. baumanii; [25]): 16 µg/mL
MIC (A. baumanii; [26]): 4 µg/mL
MIC (A. baumanii; [27]): 32 µg/mL
MIC (E. gallinarum; [28]): 16 µg/mL
MIC (E. gallinarum; [29]): 32 µg/mL
MIC (E. raffinosus): 8 µg/mL
MIC (S. haemolyticus): 8 µg/mL
MIC in agar dilution (E. coli): 128 µg/mL
MIC in agar dilution (K. pneumoniae): 64 µg/mL
MIC in agar dilution (P. aeruginosa): >128 µg/mL
MIC in agar dilution (S. aureus): >128 µg/mL
MIC in agar dilution (S. cohnii): 16 µg/mL
MIC in agar dilution (S. warnerii): 8 µg/mL
hemolysis values (in words) (human erythrocytes): high hemolysis values

RIVQRIKKWLLKWKKLGY-NH2 [peptide 5, RIVQRIKKWLLKWKKLGY]
MIC (Escherichia coli; [1]): 32 µg/mL
MIC (Escherichia coli; [2]): 64 µg/mL
MIC (Escherichia coli; [3]): 64 µg/mL
MIC (Escherichia coli; [4]): 64 µg/mL
MIC (Escherichia coli; [5]): 16 µg/mL
MIC (Escherichia coli; [6]): 32 µg/mL
MIC (Pseudomonas aeruginosa; [7]): 64 µg/mL
MIC (Pseudomonas aeruginosa; [8]): 64 µg/mL
MIC (Pseudomonas aeruginosa; [9]): 32 µg/mL
MIC (Pseudomonas aeruginosa; [10]): 64 µg/mL
MIC (Pseudomonas aeruginosa; [11]): 64 µg/mL
MIC (Staphylococcus aureus; [12]): 64 µg/mL
MIC (Staphylococcus aureus; [13]): 64 µg/mL
MIC (Staphylococcus aureus; [14]): 32 µg/mL
MIC (Staphylococcus aureus; [15]): 64 µg/mL
MIC (Staphylococcus aureus; S. aureus ATCC29213, WT): 32 µg/mL
MIC (Staphylococcus aureus; [16]): 64 µg/mL
MIC (Staphylococcus aureus; [17]): 32 µg/mL
MIC (Staphylococcus aureus; S. aureus M6276, resistance gene ermA + lnuA): 64 µg/mL
MIC (Staphylococcus aureus; [18]): 32 µg/mL
MIC (A. baumanii; [19]): 16 µg/mL
MIC (A. baumanii; [20]): 32 µg/mL
MIC (A. baumanii; [21]): 8 µg/mL
MIC (A. baumanii; [22]): 8 µg/mL
MIC (A. baumanii; [23]): 16 µg/mL
MIC (A. baumanii; [24]): 16 µg/mL
MIC (A. baumanii; [25]): 8 µg/mL
MIC (A. baumanii; [26]): 32 µg/mL
MIC (A. baumanii; [27]): 4 µg/mL
MIC (E. gallinarum; [28]): 16 µg/mL
MIC (E. gallinarum; [29]): 16 µg/mL
MIC (E. raffinosus): 8 µg/mL
MIC (S. haemolyticus): 8 µg/mL
MIC (S. saprophyticus): 8 µg/mL
MIC in agar dilution (E. coli): 64 µg/mL
MIC in agar dilution (K. pneumoniae): >128 µg/mL
MIC in agar dilution (P. aeruginosa): >128 µg/mL
MIC in agar dilution (S. aureus): >128 µg/mL
MIC in agar dilution (S. cohnii): 8 µg/mL
MIC in agar dilution (S. warnerii): 8 µg/mL
therapeutic index (antimicrobial potency over the cytotoxicity percentage) (human erythrocytes; in words): highest therapeutic index values
